The values below come from patent publication US9839623B2, “Tricyclic compounds and methods of making and using same” (Zafgen, Inc., priority 2010, dated 2017).

This test addresses T1, recombinant human MetAP2 (Homo sapiens, UniProt P50579).
T1 construct: made in house; host or cells: Sf9 insect cells
The test can be described thus: Inhibition of recombinant human MetAP2 activity (MAS substrate, amino acid oxidase/Amplex red fluorescence). The test is classed as biochemical. Conditions: manganese enzyme, 30 minutes at 25° C., pH 7.5, 0.75 mM MAS substrate, 1% DMSO. As for the experimental part:
Compounds are tested for their capacity to inhibit recombinant human MetAP2 activity using the following assay.
Human recombinant MetAP2 expressed in Sf9 cells followed by affinity purification and EDTA treatment to remove endogenous active site cation was dialysed against MnCl2 to produce the manganese enzyme used in the assay. The assay was carried out for 30 minutes at 25° C. in 50 mM HEPES buffer containing 100 mM NaCl, pH 7.5 the presence of 0.75 mM Methionine-Alanine-Serine (MAS) substrate and 50 μg/mL amino acid oxidase using a dilution of purified MetAP2 giving >3-fold signal:noise. Cleavage of the substrate by MetAP2 and oxidation of free methionine by amino acid oxidase was detected and quantified using fluorescence generated by Amplex red (10-acetyl-3,7-dihydroxyphenoxazine) in combination with horseradish peroxidase which detects H2O2 released during the oxidation step. The fluorescent signal was detected using a multiwell fluorimeter. Compounds were diluted in DMSO prior to addition to assay buffer, the final DMSO concentration in the assay being 1%.
The IC50 is defined as the concentration at which a given compound achieves 50% inhibition of control. IC50 values are calculated using the XLfit software package (version 2.0.5).

T1 sequence (P50579 whole entry): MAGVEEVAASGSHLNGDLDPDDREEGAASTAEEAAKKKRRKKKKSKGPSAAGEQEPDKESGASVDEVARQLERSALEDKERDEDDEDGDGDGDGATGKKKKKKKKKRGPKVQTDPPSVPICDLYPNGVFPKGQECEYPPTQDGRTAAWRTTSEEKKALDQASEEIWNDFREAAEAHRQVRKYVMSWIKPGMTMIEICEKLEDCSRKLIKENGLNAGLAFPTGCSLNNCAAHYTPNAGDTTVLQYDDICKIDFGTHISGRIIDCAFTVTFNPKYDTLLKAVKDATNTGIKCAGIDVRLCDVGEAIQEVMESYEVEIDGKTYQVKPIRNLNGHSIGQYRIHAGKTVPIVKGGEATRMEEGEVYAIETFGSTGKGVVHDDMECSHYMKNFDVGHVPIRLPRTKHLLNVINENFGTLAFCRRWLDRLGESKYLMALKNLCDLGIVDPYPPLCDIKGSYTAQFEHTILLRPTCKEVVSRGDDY

In the case of `CCN(CC)C/C=C\c1cc(F)ccc1S(=O)(=O)Nc1ccc2c([nH]c(=O)c3occc32)c1C(=O)O` [Example 22, 7-[2-((Z)-3-Diethylaminoprop-1-enyl)-4-fluorobenzenesulfonylamino]-4-oxo-4,5-dihydrofuro[2,3-c]quinoline-6-carboxylic Acid], the IC50 was less than 100 nM.

In the case of `CCN(CC)C/C=C\c1ccccc1S(=O)(=O)Nc1ccc2c(c1C(=O)O)OCc1occc1-2` [Example 19], the half-inhibitory concentration (IC50) is less than 100 nM.

Consider `CCN(CC)C/C=C\c1cc(F)ccc1S(=O)(=O)Nc1ccc2c(ncc3occc32)c1C(=O)O` [Example 8, 7-[2-((Z)-3-Diethylaminoprop-1-enyl)-4-fluorobenzenesulfonylamino]-furo[2,3-c]quinoline-6-carboxylic Acid], for which the IC50 was less than 100 nM.

Turning to `CCN(CC)CCCc1cc(F)ccc1S(=O)(=O)Nc1ccc2c(c1C(=O)O)OCCc1occc1-2` [Example 11, 8-[2-(3-Diethylaminopropyl)-4-fluorobenzenesulfonylamino]-4,5-dihydro-3,6-dioxabenzo[e]azulene-7-carboxylic Acid], the IC50 was less than 100 nM.

On to `CCN(CC)C/C=C\c1cc(F)ccc1S(=O)(=O)Cc1ccc2c(c1C(=O)O)OC(C)c1occc1-2` (racemic) [Example 15], for which the IC50 was less than 100 nM.

Take `O=C(O)c1c(CS(=O)(=O)c2ccccc2)ccc2c1OCCc1occc1-2` [Example 3, 8-(Benzenesulfonylmethyl)-4,5-dihydro-3,6-dioxabenzo[e]azulene-7-carboxylic Acid]: the IC50 is 100 to 1000 nM.

With `O=C(O)c1c(NS(=O)(=O)c2ccc(F)cc2/C=C\CN2CCOCC2)ccc2c1OCc1occc1-2` [Example 12, 7-{4-Fluoro-2-[(Z)-3-(morpholin-4-yl)prop-1-enyl]benzenesulfonylamino}-4H-furo[2,3-c]chromene-6-carboxylic Acid], the IC50 was less than 100 nM.

`O=C(O)c1c(CS(=O)(=O)c2ccccc2)ccc2c1oc(=O)c1occc12` [Example 5, 7-(Benzenesulfonylmethyl)-4-oxo-4H-furo[2,3-c]chromene-6-carboxylic Acid]: the IC50 was in the range of 100 to 1000 nM.

For the compound `CCN(CC)CCCc1cc(F)ccc1S(=O)(=O)Nc1ccc2c(ncc3occc32)c1C(=O)O` [Example 16, 7-[2-(3-Diethylaminopropyl)-4-fluorobenzenesulfonylamino]-furo[2,3-c]quinoline-6-carboxylic Acid], the half-maximal inhibitory concentration (IC50) is less than 100 nM.

Regarding `O=C(O)c1c(NS(=O)(=O)c2ccc(F)cc2/C=C\CN2CCC2)ccc2c1OCc1occc1-2` [Example 23, 7-{2-[(Z)-3-(Azetidin-1-yl)prop-1-enyl]-4-fluorobenzenesulfonyl-amino}-4H-furo[2,3-c]chromene-6-carboxylic Acid], the IC50 was less than 100 nM.

With `CCN(CC)C/C=C/c1cc(F)ccc1S(=O)(=O)Nc1ccc2c(c1C(=O)O)OCc1occc1-2` [Example 26, 7-[2-((E)-3-Diethylaminoprop-1-enyl)-4-fluorobenzenesulfonylamino]-4H-furo[2,3-c]chromene-6-carboxylic Acid], the IC50 is less than 100 nM.

Turning to `O=C(O)c1c(NS(=O)(=O)c2ccc(F)cc2/C=C\CN2CC[C@@H](O)C2)ccc2c1OCc1occc1-2` [Example 20, 7-{4-Fluoro-2-[(Z)-3-((R)-3-hydroxypyrrolidin-1-yl)-prop-1-enyl]-benzenesulfonylamino}-4H-furo[2,3-c]chromene-6-carboxylic Acid], the concentration for half-maximal inhibition (IC50) was less than 100 nM.

In the case of `CCN(CC)C/C=C\c1cc(F)ccc1S(=O)(=O)Nc1ccc2c(c1C(=O)O)OCc1occc1-2` [Example 1, 7-[2-((Z)-3-Diethylaminoprop-1-enyl)-4-fluorobenzenesulfonylamino]-4H-furo[2,3-c]chromene-6-carboxylic Acid], the IC50 is less than 100 nM.

Take `CCN(CC)C/C=C\c1cc(F)ccc1S(=O)(=O)Nc1ccc2c(oc(=O)c3occc32)c1C(=O)O` [Example 14]: the IC50 was less than 100 nM.

Regarding `O=C(O)c1c(NS(=O)(=O)c2ccc(F)cc2/C=C\CN2CC(O)C2)ccc2c1OCc1occc1-2` [Example 24, 7-{4-Fluoro-2-[(Z)-3-(3-hydroxyazetidin-1-yl)-prop-1-enyl]-benzenesulfonylamino}-4H-furo[2,3-c]chromene-6-carboxylic Acid], the IC50 is less than 100 nM.

On to `CCNC/C=C\c1cc(F)ccc1S(=O)(=O)Nc1ccc2c(c1C(=O)O)OCc1occc1-2` [Example 10, 7-[2-((Z)-3-Ethylaminoprop-1-enyl)-4-fluorobenzenesulfonylamino]-4H-furo[2,3-c]chromene-6-carboxylic Acid], for which the IC50 is less than 100 nM.

Take `CCN(CC)C/C=C\c1cc(F)ccc1S(=O)(=O)Cc1ccc2c(c1C(=O)O)OC(C)c1occc1-2` (single isomer, unassigned) [Example 18A, 7-[2-((Z)-3-diethylaminoprop-1-enyl)-4-fluorobenzenesulfonylmethyl]-4-methyl-4H-furo[2,3-c]chromene-6-carboxylic Acid]: the IC50 is less than 100 nM.

As to `O=C(O)c1c(NS(=O)(=O)c2ccc(F)cc2/C=C\CN2CCCC2)ccc2c1OCc1occc1-2` [Example 13, 7-{4-Fluoro-2-[(Z)-3-(pyrrolidin-1-yl)prop-1-enyl]benzenesulfonylamino}-4H-furo[2,3-c]chromene-6-carboxylic Acid], the IC50 was less than 100 nM.

`C[C@H]1Oc2c(ccc(CS(=O)(=O)c3ccccc3)c2C(=O)O)-c2ccoc21` (stereo in doubt) [Example 6, 7-(Benzenesulfonylmethyl)-4-methyl-4H-furo[2,3-c]chromene-6-carboxylic Acid]: the half-inhibitory concentration (IC50) was less than 100 nM.

As to `O=C(O)c1c(NS(=O)(=O)c2ccc(F)cc2/C=C\CN2CC[C@H](O)C2)ccc2c1OCc1occc1-2` [Example 21, 7-{4-Fluoro-2-[(Z)-3-((S)-3-hydroxypyrrolidin-1-yl)-prop-1-enyl]-benzenesulfonylamino}-4H-furo[2,3-c]chromene-6-carboxylic Acid], the concentration for half-maximal inhibition (IC50) is less than 100 nM.

In the case of `O=C(O)c1c(CS(=O)(=O)c2ccccc2)ccc2c1ncc1occc12` [Example 4, 7-(Benzenesulfonylmethyl)-furo[2,3-c]quinoline-6-carboxylic Acid], the half-maximal inhibitory concentration (IC50) lay in the range of 100 to 1000 nM.

Regarding `CCN(CC)C/C=C\c1cc(F)ccc1S(=O)(=O)Nc1ccc2c(c1C(=O)O)OCCc1occc1-2` [Example 7, 8-[2-((Z)-3-Diethylaminoprop-1-enyl)-4-fluorobenzenesulfonylamino]-4,5-dihydro-3,6-dioxabenzo[e]azulene-7-carboxylic Acid], the concentration for half-maximal inhibition (IC50) is less than 100 nM.

As to `CCN(CC)CCCc1cc(F)ccc1S(=O)(=O)Nc1ccc2c(c1C(=O)O)OCc1occc1-2` [Example 9, 7-[2-(3-Diethylaminopropyl)-4-fluorobenzenesulfonylamino]-4H-furo[2,3-c]chromene-6-carboxylic Acid], the half-inhibitory concentration (IC50) is less than 100 nM.

On to `CCN(CC)C/C=C\c1cc(F)ccc1S(=O)(=O)Nc1ccc2c(c1C(=O)O)OCc1occ(F)c1-2` [Example 25, 7-[2-((Z)-3-Diethylaminoprop-1-enyl)-4-fluorobenzenesulfonylamino]-1-fluoro-4H-furo[2,3-c]chromene-6-carboxylic Acid], for which the IC50 was less than 100 nM.

As for `CCN(CC)C/C=C\c1cc(F)ccc1S(=O)(=O)Nc1ccc2c(c1C(=O)O)OCc1cnsc1-2` [Example 17, 7-[2-((Z)-3-Diethylaminoprop-1-enyl)-4-fluorobenzenesulfonylamino]-4H-chromeno[3,4-d]isothiazole-6-carboxylic Acid], the IC50 is less than 100 nM.

As for `CCN(CC)C/C=C\c1cc(F)ccc1S(=O)(=O)Cc1ccc2c(c1C(=O)O)OC(C)c1occc1-2` (single isomer, unassigned) [Example 18B, 7-[2-((Z)-3-diethylaminoprop-1-enyl)-4-fluorobenzenesulfonylmethyl]-4-methyl-4H-furo[2,3-c]chromene-6-carboxylic Acid], the IC50 is 100 to 1000 nM.

Take `O=C(O)c1c(CS(=O)(=O)c2ccccc2)ccc2c1OCc1occc1-2` [Example 2, 7-(Benzenesulfonylmethyl)-4H-furo[2,3-c]chromene-6-carboxylic Acid]: the 50% inhibitory concentration (IC50) was less than 100 nM.
